pIC50: −log10 of the molar value. Where two headings read alike, the source gives them in different places.
How the values were obtained:
[1] = molecular target: T1, sodium iodide symporter (NIS) (Rattus norvegicus, UniProt Q63008); details: rat thyroid-derived cells (FRTL5); F. Waltz et al. 2010; read-out: IC50 competitive inhibition of iodide transport in FRTL5; cited from earlier work
T1 construct: The biological activity of each compound was determined in FRTL5 cells, using a 24-well plate format radioiodide uptake assay; endogenous in cells; host or cells: FRTL5 (rat thyroid-derived cells)
T1 sequence (Q63008 1-618): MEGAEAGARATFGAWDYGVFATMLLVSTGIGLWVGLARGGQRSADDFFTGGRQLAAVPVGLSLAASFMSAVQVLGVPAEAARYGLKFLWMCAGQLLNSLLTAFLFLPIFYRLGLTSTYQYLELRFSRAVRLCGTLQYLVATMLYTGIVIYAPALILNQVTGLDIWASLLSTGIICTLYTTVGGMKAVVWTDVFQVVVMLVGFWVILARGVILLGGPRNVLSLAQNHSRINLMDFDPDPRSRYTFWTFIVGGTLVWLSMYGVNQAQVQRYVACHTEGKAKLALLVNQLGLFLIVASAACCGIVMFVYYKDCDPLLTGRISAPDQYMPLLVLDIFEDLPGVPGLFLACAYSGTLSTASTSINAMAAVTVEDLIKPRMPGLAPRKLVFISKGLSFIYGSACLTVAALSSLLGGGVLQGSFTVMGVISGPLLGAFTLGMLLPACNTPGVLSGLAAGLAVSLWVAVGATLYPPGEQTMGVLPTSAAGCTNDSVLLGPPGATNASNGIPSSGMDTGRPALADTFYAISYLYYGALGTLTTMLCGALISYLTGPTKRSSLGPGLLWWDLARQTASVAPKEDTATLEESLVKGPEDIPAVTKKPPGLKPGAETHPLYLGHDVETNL

[2] = concentration up to 200 μM; cited from earlier work
[3] = molecular target: T1, sodium iodide symporter (NIS); experiment: radioiodide uptake assay in FRTL5 cells (24-well plate); assay type: cell-based; details: 60 min, NaI 10 μM, averaged from two to four independent experiments, read-out: IC50 against iodide uptake in FRTL5 cells
Experimental: In the framework of the invention, the NIS inhibitor is evaluated as follow: rat thyroid-derived cells (FRTL5 cells expressing NIS) are incubated during 1 h with iode and 125-I as a tracer, and in the presence of various concentration of compound. For each tested concentration of compound, the amount of iodide inside the cells is quantified by radioactive counting. The half-maximum inhibitory concentration (IC50) is evaluated for each compound by regression analysis (to the Hill equation) from dose-response data. A detailed protocol is provided in the experimental section, and also in N. Lecat-Guillet et al., ChemMedChem, 2008.
The synthesized compounds were evaluated for their ability to inhibit iodide entrapment in FRTL5 cells using a rodiodide uptake assay. The IC50 values were measured in at least two independent experiments.
The biological activity of each compound was determined in FRTL5 cells, using a 24-well plate format radioiodide uptake assay. Each experiment was run in quadruplicate and at least twice independently. Compound potency was expressed as IC50, the concentration of compound necessary to achieve 50% inhibition of iodide uptake. NaClO4 and the Compound 2 were tested as assay controls.
FRTL5 cells were cultured in Coon's modified F12 medium supplemented with 5% heat-inactivated fetal bovine serum (Invitrogen), 2 mM L-glutamine, 100 U/mL penicillin, 0.1 mg/mL streptomycin, 10 μg/mL insulin, 10 nM hydrocortisone, 10 ng/mL Gly-His-Lys acetate, 1 mU/mL TSH, 5 μg/mL transferrin at 37° C. and 5% CO2. For iodide uptake assays, 1.25 mL of FRTL5 cells with density of 250,000 cells/mL were dispensed in each well of clear flat-bottomed 24-well polystyrene microplates (BD Falcon 3047), and further cultured until confluence reached 70-90% (3-4 days).
Prepare ˜1.5 mL/plate of an intermediate “10-fold” radioiodide uptake buffer solution: NaI (100 μM) and [125-I]-NaI (20 μCi/mL) in uptake buffer (HBSS/Hepes).
For each concentration of compound tested, prepare ˜2.5 mL of compound solutions in uptake buffer (HBSS/Hepes 10 mM) at 1.12 fold the final concentration, so that 450 μL of this solution plus 50 μL of radioiodide uptake buffer makes the desired final concentration (NaI 10 μM final, 1 μCi/well).
The procedure is performed at 20±2° C. in a well ventilated hood. Culture medium of FRTL5 cells is removed by aspiration. Compound solutions are added to the 24-well plate in quadruplicate (450 μL/well) immediately followed by [125I]-NaI radioiodide uptake buffer (50 μL/well, 10 μM final, 1 μCi/well). The 24-well plate is left to stand for 60 min. Radioactive supernatants are removed by aspiration and the cell are washed twice with 500 μL of cold uptake buffer (HBSS/Hepes at 4° C.). Finally, the residual supernatant is removed by aspiration and 500 μL of lysis buffer (SDS 0.1%, triton 0.5%) is added to each well. The 24-well plate is gently agitated for 60-120 min. The radioactive cell lysates are collected and placed into scintillation vials. Scintillation cocktail (Ultima gold LLT, Perkin Elmer) is added to each vial (4 mL) and the radioactivity is measured (Wallac 1409). For IC50 determination, mean DPM values were fitted by non-linear regression (least square) to the four-parameter sigmoidal Hill equation.
IC50 values are averaged from two to four independent experiments. A standard deviation of 2-fold was judged acceptable. NaClO4 and Compound 2 were tested as assay controls.

Row | Compound | pIC50 [3] | other results
1 | F[B-](F)(F)F [BF4^−] | – | pIC50 [1]: 6.12
2 | [O-][Cl+3]([O-])([O-])O [ClO4^−] | – | pIC50 [1]: 6.85
3 | Brc1cccc(C2NCCc3c2[nH]c2ccccc32)c1 (stereo not shown) [Compound 1] | – | cytotoxicity [2]: not cytotoxic
4 | O=[N+]([O-])c1cccc(C2NCCc3c2[nH]c2ccccc32)c1 (stereo not shown) [Compound 2] | – | cytotoxicity [2]: not cytotoxic
5 | O=[N+]([O-])c1cccc(C2OCCc3c2[nH]c2ccccc32)c1 (stereo not shown) [Compound 4, 1-(3-nitrophenyl)-1,3,4,9-tetrahydropyrano[3,4-b]indole] | 8.28 | –
6 | O=[N+]([O-])c1cccc(C2NCCc3c2oc2ccccc32)c1 (stereo not shown) [Compound 5, 1-(3-nitrophenyl)-1,2,3,4-tetrahydro[1]benzofuro[2,3-c]pyridine] | 6.70 | –
7 | O=[N+]([O-])c1cccc(C2SCCc3c2[nH]c2ccccc32)c1 (stereo not shown) [Compound 6, 1-(3-nitrophenyl)-1,3,4,9-tetrahydrathiopyrano[3,4-b]indole] | 6.85 | –
8 | Fc1ccc(F)c(C2OCCc3c2[nH]c2ccccc32)c1 (stereo not shown) [Compound 7, 1-(2,5-difluorophenyl)-1,3,4,9-tetrahydropyrano[3,4-b]indole] | 6.77 | –
9 | c1cc2c(c(C3OCCc4c3[nH]c3ccccc43)c1)OCO2 (stereo not shown) [Compound 8, 1-(benzo[d][1,3]dioxol-4-yl)-1,3,4,9-tetrahydropyrano[3,4-b]indole] | 9.39 | –
10 | Clc1cccc(C2OCCc3c2[nH]c2ccccc32)c1 (stereo not shown) [Compound 9, 1-(3-chlorophenyl)-1,3,4,9-tetrahydropyrano[3,4-b]indole] | 6.85 | –
11 | COc1ccc(F)c(C2OCCc3c2[nH]c2ccccc32)c1 (stereo not shown) [Compound 10, 1-(2-fluoro-5-methoxyphenyl)-1,3,4,9-tetrahydropyrano[3,4-b]indole] | 7.24 | –
12 | Brc1cccc(C2OCCc3c2[nH]c2ccccc32)c1 (stereo not shown) [Compound 11, 1-(3-bromophenyl)-1,3,4,9-tetrahydropyrano[3,4-b]indole] | 6.77 | –
13 | Fc1ccc(C2OCCc3c2[nH]c2ccccc32)cc1Cl (stereo not shown) [Compound 12, 1-(3-chloro-4-fluorophenyl)-1,3,4,9-tetrahydropyrano[3,4-b]indole] | 6.70 | –
14 | Nc1cccc(C2OCCc3c2[nH]c2ccccc32)c1 (stereo not shown) [Compound 13, 1-(3-aminophenyl)-1,3,4,9-tetrahydropyrano[3,4-b]indole] | 8.96 | –
15 | O=[N+]([O-])O [NO3^−] | – | pIC50 [1]: 3.60
16 | F[P-](F)(F)(F)(F)F [PF6^−] | – | pIC50 [1]: 8.05

From patent publication US20150299218A1, “Heterocyclic Compounds As Inhibitors Of The Sodium Iodide Symporter” (COMMISSARIAT A L'ENERGIE ATOMIQUE ET AUX ENERGIES …, priority 2012, published 2015)
